Where “and” joins values, the source holds several entries; their conditions need not be identical. Identical values can stand only once.

Consider 3 compounds from US20250073226A1, “USE OF OPIOID FOR TREATMENT OF AUTISM SPECTRUM DISORDERS” (priority 2021, published 2025).

Data set [1] can be described thus: Pharmacokinetic: drug concentrations in plasma by LC-MS after subcutaneous administration. To be noted: ICR mice.
A further data set has as its system mice. The following applies: Non-patent Document 28; cited from earlier work.
Data set [2] has as its system model similar to this experiment. To be noted: 3 hours after administration; Horm Behav. 2017 November; 96:130-136; cited from earlier work.
The mark [3] stands for this setting: morphine hydrochloride 0.03 mg/kg s.c., Average value.
[4] abbreviates: morphine hydrochloride 0.03 mg/kg s.c., individual animals.
Setting [5] is: morphine hydrochloride 0.1 mg/kg s.c., Average value.
Where [6] appears, read: morphine hydrochloride 0.1 mg/kg s.c., individual animals.
Setting [7] is: morphine hydrochloride 3 mg/kg s.c., Average value.
The mark [8] stands for this setting: morphine hydrochloride 3 mg/kg s.c., individual animals.

As for `CN1CC[C@]23c4c5ccc(O)c4O[C@H]2[C@@H](O[C@@H]2O[C@H](C(=O)O)[C@@H](O)[C@H](O)[C@H]2O)C=C[C@H]3[C@H]1C5` [M6G], the “Plasma concentration M6G After 15 minutes” value in data set [1] (setting [3]) is 13.2 ng/mL; in data set [1] (setting [4]), 10.4 ng/mL and 15.7 ng/mL and 13.6 ng/mL; in data set [1] (setting [5]), 44.6 ng/mL; in data set [1] (setting [6]) it was 47.7 ng/mL and 35.3 ng/mL and 50.7 ng/mL; in data set [1] (setting [7]), 1196 ng/mL; in data set [1] (setting [8]) it was 1250 ng/mL and 1340 ng/mL and 998 ng/mL. Moreover, the “Plasma concentration M6G After 60 minutes” value is 5.09 ng/mL in data set [1] (setting [3]); 6.28 ng/mL and 5.05 ng/mL and 3.95 ng/mL in data set [1] (setting [4]); 7.65 ng/mL in data set [1] (morphine hydrochloride 0.1 mg/kg s.c., Average value (N = 3 excluded as outlier)); 0 ng/mL and 15.3 ng/mL in data set [1] (setting [6]); 646 ng/mL in data set [1] (setting [7]); 829 ng/mL and 580 ng/mL and 528 ng/mL in data set [1] (setting [8]). Also, the “Plasma concentration M6G After 90 minutes” value in data set [1] (setting [3]) was 0.488 ng/mL; in data set [1] (setting [4]), 0 ng/mL and 0.806 ng/mL and 0.657 ng/mL; in data set [1] (setting [5]), 3.41 ng/mL; in data set [1] (setting [6]), 2.98 ng/mL and 4.4 ng/mL and 2.85 ng/mL; in data set [1] (setting [7]), 298 ng/mL; in data set [1] (setting [8]), 320 ng/mL and 240 ng/mL and 335 ng/mL.
Turning to `CN1CC[C@]23c4c5ccc(O)c4O[C@H]2[C@@H](O)C=C[C@H]3[C@H]1C5` [morphine], the “dose at which the analgesic effect was maximum” value with mice is given as 8 mg/kg.
As for `CC[C@H](C)[C@@H]1NC(=O)[C@H](Cc2ccc(O)cc2)NC(=O)[C@@H](N)CSSC[C@@H](C(=O)N2CCC[C@H]2C(=O)N[C@@H](CC(C)C)C(=O)NCC(N)=O)NC(=O)[C@H](CC(N)=O)NC(=O)[C@H](CCC(N)=O)NC1=O` [oxytocin], the “improvement effect of social impairment, persistence” value in data set [2] is “the drug efficacy disappears”.
